Measurements published in publication PMC4763988, “Activating peptides for cellular uptake via polymerization into high density brushes” (Chemical Science, 2015).
NorAha = not defined here

Key:
HeLa cells [1] = test: Propidium iodide cell staining assay for necrotic cells; assay type: cell-based; conditions: flow cytometry PI channel; for Propidium iodide staining, shift of cell population (in words): KLA m ~ 10 5 hr, staurosporine 1 µM 24 hrs
Description: Apoptosis and necrosis assays. Apoptotic and necrotic cells were identified using the CFTM488A Annexin V
stains necrotic cells. For these studies, HeLa cells were plated at a density of 420,000 cells per well of a 6-well
plate 18 hrs prior to treatment. KLA, m ~ 10, was dissolved in DPBS to a concentration of 2000 µM, where
concentration is with respect to peptide and no fluorophore is present. Staurosporin, a small molecule that is
known to cause apoptosis, was dissolved at 1000× (desired concentration on cells is 1 µM) in DMSO.
Staurosporin and the vehicle control were added to the wells 24 hrs prior to analysis, and KLA (m ~ 10) and 10%
DMSO control were added 5 hr prior to analysis. After incubation, materials were removed and the cells were
washed 2× with DPBS followed by 3 × 5 minute incubations with heparin (0.5 mg/mL in DPBS), and finally rinsed
and the cells were transferred to Eppendorf tubes. The suspended cells were centrifuged to pellets and then
resuspended in 100 µL Annexin V binding buffer. Then 5 µL of Annexin V was added to each Eppendorf, followed
by 1 µL of PI. The cells were then incubated in a 37 ° C water bath for 15 minutes in the dark. After incubation,
flow cytometry data was acquired monitoring the FITC channel (for Annexin V staining) and the PI channel.

cells = conditions: cited from earlier work
HeLa cells [2] = system: HeLa cells
HeLa cells [3] = assay type: cell-based
Description: Figures S10. Influence of the degree of polymerization or “m” on cellular uptake as quantified by flow cytometry. All data are […] with respect to the fluorophore. 20 15 10 Conc.&(μM)& […] 5 […] 0 […] Figures S11. Concentration dependence of cellular uptake as quantified by flow cytometry. All data are referenced to vehicle […] Concentration of all materials is with respect to the fluorophore. SVI. Live-cell confocal microscopy. HeLa cells were plated on glass-bottom 24-well plates at a cell density of 90,000 cells per well 18 hrs prior to treatment with the compound of interest. The medium was removed and then replaced with medium lacking phenol red (Gibco Life Tech., cat# 31053-028) to minimize background fluorescence. […] respect to fluorophore) were added to the wells and the plates were incubated for 30 min at 37 °C. The medium was then removed and the cells were rinsed 2× with DPBS, and then fresh medium (phenol red- free) was added to each well. Live cells were imaged on an Olympus FV1000 confocal microscope with a chamber at 37 ° C under 5% CO2 via a Z-stack analysis (set to 1 μm slices) using identical instrument settings for each image and a 40× or 100x objective. S14 (also on this page, place not known: 31053 -028) […] Normalized Mean Fluorescence […]

[4] = Aggregation in DPBS by dynamic light scattering; assay type: physicochemical; conditions: for diameter by DLS: dissolved in DPBS, 10 x the concentration used in uptake studies, correlates to unimers
Description: (§1) and dried. In preparation for in vitro cell studies, all polymers were washed (3×) with cold ether (to remove the Ru catalyst) and then dissolved in DPBS and dialyzed in dialysis cups with a molecular weight cut-off value of 3500 (Thermo Scientific, cat. # 69552) in an effort to remove any residual monomer or catalyst.
(§2) We also sought to determine whether our block copolymers (i.e., GSGSGRR60-b-OEG20 and derivatives) formed larger aggregate structures in aqueous solution. To this end, we characterized three polymers GSGSGRR m ~ 60, GSGSGKK m ~ 60 and GSGSG m ~ 60 dissolved in DPBS by standard dynamic light scattering (DLS) and […] electron microscopy (TEM) analyses, which we perform routinely in other work to characterize nano-and micron-scale polymer assemblies. […]
quench here with IV. deprotection
(§3) Figure S5. Polymerization scheme for the preparation of GSGSG peptide polymers and analogues. Peptide polymers for this series are prepared via ROMP as block copolymers with an accessory OEG block to ensure aqueous solubility of all GSGSG analogues. Each peptide block is polymerized to m ~ 8, 15, 30, and 60. The OEG block is kept constant at a DP of ~ 20. The living polymer can be terminated with ethyl vinyl ether after completion of the peptide block to gain accurate molecular weights (Mn), dispersity (Mw/Mn) and degree of polymerization (DP). […]

[5] = system: mitochondrial membrane potential in HeLa cells; test: JC-1 mitochondrial integrity (membrane potential) assay; assay type: cell-based; conditions: JC-1 assay, relative to vehicle (DPBS)-treated cells
[6] = Aggregation in DPBS by TEM; assay type: physicochemical; conditions: dissolved in DPBS, 10 x the concentration used in uptake studies
Description: as §1, §2, §3

trypsin = trypsin (Sus scrofa, UniProt P00761); conditions: 50 µM with respect to peptide, protease 1 µM (Fig. S25 for KLA: 10 µM), 3 hrs in DPBS, heat denatured 65 °C 15 m, RP-HPLC with standard curve
HeLa cells [7] = system: HeLa cells; remark: listed apart in the source
[8] = system: pronase (protease cocktail); conditions: 50 µM with respect to peptide, protease 1 µM (Fig. S25 for KLA: 10 µM), 3 hrs in DPBS, heat denatured 65 °C 15 m, RP-HPLC with standard curve

trypsin, sequence (P00761 9-231): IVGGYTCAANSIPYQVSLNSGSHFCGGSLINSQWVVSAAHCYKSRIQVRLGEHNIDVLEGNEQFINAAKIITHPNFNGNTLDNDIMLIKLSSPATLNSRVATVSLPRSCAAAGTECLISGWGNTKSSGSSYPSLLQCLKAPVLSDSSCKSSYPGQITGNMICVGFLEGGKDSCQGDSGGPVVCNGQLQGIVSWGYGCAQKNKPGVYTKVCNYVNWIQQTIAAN

With CN[C@@H]1C[C@H]2O[C@@](C)([C@@H]1OC)n1c3ccccc3c3c4c(c5c6ccccc6n2c5c31)C(=O)NC4 [Staurosporine] as the compound, how does the “Propidium iodide staining, shift of cell population (in words)” value (HeLa cells [1]) read?
The value was “no shift”.

With GSGSG as the compound, how does the “Cell penetration of GSGSG (in words)” value (cells) read?
Its value is “does not penetrate cells”.

Which LD50 (HeLa cells [2]) does the source give for “NorAhaKLAKLAKKLAKLAK-NH2 [KLA polymer (m ∼ 15)]” here?
Its LD50 is 30 µM.

Which LD50 (HeLa cells [2]) does the source give for “NorAhaKLAKLAKKLAKLAK-NH2 [KLA polymer (m ∼ 10), KLA peptide homopolymer by ROMP, m ∼ 10]” here?
The LD50 was 25 µM.

And the “Internalization and localization by live-cell confocal microscopy (in words)” value (HeLa cells [3])?
The value was “diffuse and punctate fluorescence”.

And the “Propidium iodide staining, shift of cell population (in words)” value (HeLa cells [1])?
Its value is “no shift”.

With “GSGSGK53-b-OEG20 [GSGSGK Polymer (m ~ 60)]” as the compound, how does the “Aggregation of deprotected polymer in DPBS by dynamic light scattering (in words)” value ([4]; DPBS, deprotected polymer) read?
Its value is “did not aggregate in DPBS”.

Which “Cytotoxicity (in words)” value (HeLa cells [2]) does the source give for “NorAhaKLAKLAK-NH2 (NorAha-KLAKLAK-NH2; reading uncertain; also: polymerized by ROMP, about 10 repeats on polymer backbone) [KLAfragment]” here?
The value was “negligible toxicity”.

And the “Internalization and localization by live-cell confocal microscopy (in words)” value (HeLa cells [3])?
The value was “mixture of diffuse and punctate fluorescence”.

And the “Mitochondrial integrity of treated cells (in words)” value [5]?
The value was “unaffected”.

What does the source list for GSGSG56-b-OEG28 [GSGSG polymer]?
diameter by DLS [4]: < 6 nm; TEM images compared with buffer (DPBS) alone [6]: indistinguishable

For “NorAhaKLAKLAKKLAKLAK-NH2 [KLA polymer (m ∼ 5)]”, which LD50 (HeLa cells [2]) is on record?
The LD50 was 12.5 µM.

Which “Propidium iodide staining, increase in necrotic cells” value (HeLa cells [1]; 10% DMSO added 5 hr prior to analysis) does the source give for C[S+](C)[O-] [DMSO] here?
The value was ~40 fold increase.

What does the source list for NorAhaGSGSGKK-NH2 [GSGSGKK polymer]?
diameter by DLS [4]: < 6 nm; Internalization and localization by live-cell confocal microscopy (in words) (HeLa cells [3]): diffuse and punctate fluorescence; TEM images compared with buffer (DPBS) alone [6]: indistinguishable

Which results are given for K(Flu)KLAKLAKKLAKLAK-NH2 [KLA peptide]?
Cytotoxicity (in words) (HeLa cells [2]): no cytotoxicity was detected; Proteolytic degradation by trypsin (RP-HPLC before and after, in words) (trypsin): completely degraded into fragments; Cell penetration of KLA (in words) (cells; sub-millimolar concentrations): does not penetrate cells at sub-millimolar concentrations; Cellular uptake: fluorescence signal of treated HeLa cells by flow cytometry (in words) (HeLa cells [7]): indistinguishable from that of the vehicle control; Proteolytic degradation by pronase (RP-HPLC before and after, in words) [8]: completely degraded into fragments
